One may read the Kb as the affinity of an antagonist, worked out from how it opposes an agonist.

From patent US6313132A, “Therapeutically active diarylpropylamines; their pharmaceutically acceptable salts; a method for their preparation and method for their use” (Pharmacia AB, priority 1999, dated 2001) come the findings set out here.

The target in this assay is T1, muscarinic receptor (Cavia porcellus, UniProt H0W1Z3).
T1 construct: Smooth muscle strips of the urinary bladder were dissected in a Krebs-Henseleit solution; from tissue; host or cells: guinea pig urinary bladder smooth muscle strips
T1 sequence (H0W1Z3 1-590): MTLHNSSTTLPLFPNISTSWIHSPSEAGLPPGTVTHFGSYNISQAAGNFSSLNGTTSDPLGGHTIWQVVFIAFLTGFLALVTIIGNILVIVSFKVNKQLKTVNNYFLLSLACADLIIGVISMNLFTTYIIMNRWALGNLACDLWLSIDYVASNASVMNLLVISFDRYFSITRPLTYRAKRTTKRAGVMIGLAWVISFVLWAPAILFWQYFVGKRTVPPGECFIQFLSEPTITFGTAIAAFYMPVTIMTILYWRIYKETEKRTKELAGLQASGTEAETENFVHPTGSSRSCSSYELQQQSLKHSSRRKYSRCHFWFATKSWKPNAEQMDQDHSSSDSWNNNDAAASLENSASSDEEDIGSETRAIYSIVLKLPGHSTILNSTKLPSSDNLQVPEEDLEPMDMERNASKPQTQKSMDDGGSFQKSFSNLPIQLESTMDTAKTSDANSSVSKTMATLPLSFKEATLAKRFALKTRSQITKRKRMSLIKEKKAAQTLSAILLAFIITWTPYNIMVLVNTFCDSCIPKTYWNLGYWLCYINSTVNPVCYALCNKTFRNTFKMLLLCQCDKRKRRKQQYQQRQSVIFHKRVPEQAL
Put plainly: Functional in vitro studies: antagonism of carbachol-induced contraction of urinary bladder smooth muscle strips. It counts as cell-based, guinea pig. The settings on record: male guinea pig urinary bladder strips; carbachol agonist; 60 min incubation with antagonist; Krebs-Henseleit pH 7.4, 37° C.; KB from dose ratios (Schild); read-out: KB-value.

Counter-ions that a name gives are not always drawn.

Procedure: Functional in Vitro Studies
Male guinea pigs, weighing about 300 g, were killed by a blow on the neck and exsanguinated. Smooth muscle strips of the urinary bladder were dissected in a Krebs-Henseleit solution (pH 7.4). The strip preparations were vertically mounted between two hooks in thermostatically controlled (37° C.) organ baths (5 ml). One of the hooks was adjustable and connected to a force transducer (FT 03, Grass Instruments). The Krebs-Henseleit solution was continuously bubbled with carbogen gas (93.5% O2 /6.5% CO2) to maintain the pH at 7.4. Isometric tension was recorded by a Grass Polygraph (Model 79D). A resting tension of approximately 5 mN was initially applied on each muscle strip and the preparations were allowed to stabilise for at least 45 min. The resting tension was repeatedly adjusted and the preparations were washed several times during the stabilisation period.
Carbachol (carbamylcholine chloride) was used as the standard muscarinic receptor agonist. In each experiment, the viability of the preparations and the reproducibility of their contractile responses were initially tested by two consecutive additions of a submaximal concentration (3×10^-6 M) of carbachol. A concentration-response curve to carbachol was then generated by cumulative addition of carbachol to the organ-bath (i.e., stepwise increase of the agonist concentration until the maximal contractile response was reached), followed by washing out and a resting period of at least 15 min. before a fix concentration of the test compound (antagonist) was added to the organ-bath. After 60 min. of incubation with the antagonist, a second cumulative concentration-responsecurve to carbachol was generated. Responses were expressed as percent of the maximal response to carbachol. EC50 -values for carbachol in the absence (control) and presence of antagonist were graphically derived and dose ratios (r) were calculated. Dissociation constants, KB, for the antagonists were calculated using equation (1) (Schild, H. I., Br. J. Pharmacol. Chemother. 1949, 4, 277-280), where [A] is the concentration of test compound:

Turning to `CC(C)N(CC[C@H](c1ccccc1)c1cc(CCC#N)ccc1O)C(C)C` [Example 24, (R)-N,N-Diisopropyl-3-[5-(2-cyanoethyl)-2-hydroxyphenyl]-3-phenylpropanamine hydrochloride], the antagonist equilibrium constant (Kb) was determined as 1.91 nM.

Take `Cc1ccc(O)c(C(CCN(C)C2CCCCC2)c2ccccc2)c1` (stereo not drawn) [Example 3, N-Cyclohexyl-N-methyl-3-(2-hydroxy-5-methylphenyl)-3-phenylpropanamine hydrochloride]: the Kb was determined as 236 nM.

For the molecule `CC(C)N(CCC(c1cccs1)c1ccc(O)cc1O)C(C)C` (stereo not drawn) [Example 42, N,N-Diisopropyl-3-(2,4-dihydroxyphenyl)-3-(2-thienyl)propanamine], the Kb was 286 nM.

With `CC(C)N(CCC(c1ccccc1)c1ccccc1N)C(C)C` (stereo not drawn) [Example 33, N,N-Diisopropyl-3-(2-aminophenyl)-3-phenylpropanamine hydrochloride], the Kb turned out to be 56 nM.

For the molecule `CCOCc1ccc(O)c([C@H](CCN(C(C)C)C(C)C)c2ccccc2)c1` [Example 19, (R)-N,N-Diisopropyl-3-(5-ethoxymethyl-2-hydroxyphenyl)-3-phenylpropanamine], the Kb turned out to be 2.9 nM.

For `CC(C)N(CC[C@H](c1ccccc1)c1cc(N=[N+]=[N-])ccc1O)C(C)C` [Example 28, (R)-N,N-Diisopropyl-3-(5-azido-2-hydroxyphenyl)-3-phenylpropanamine hydrochloride], the Kb turned out to be 8.55 nM.

Consider `CC(C)N(CCC(c1ccccc1)c1cccs1)C(C)C` (stereo not drawn) [Example 48, N,N-Diisopropyl-3-phenyl-3-(2-thienyl)propanamine, hydrochloride], for which the antagonist dissociation constant (Kb) came to 31 nM.

As for `CC(C)N(CC[C@H](c1ccccc1)c1cc(CCCN)ccc1O)C(C)C` [Example 22, (R)-N,N-Diisopropyl-3-[5-(3-aminopropyl)-2-hydroxyphenyl]-3-phenylpropanamine dihydrochloride], the Kb came to 2.8 nM.

As for `Cn1cccc1C(CCN1CCCC1)c1ccccc1` (stereo not drawn) [Example 60, 3-(N-Methylpyrrol-2-yl)-3-phenyl-1-pyrrolidinopropane fumarate], the Kb amounted to 707 nM.

For the molecule `COc1ccc(C(CCN(C(C)C)C(C)C)c2cccs2)cc1` (stereo not drawn) [Example 46, N,N-Diisopropyl-3-(4-methoxyphenyl)-3-(2-thienyl)propanamine hydrochloride], the Kb is 286 nM.

`c1ccc(C(CCN2CCCC2)c2cccs2)cc1` (stereo not drawn) [Example 52, N-[3-Phenyl-3-(2-thienyl)propyl]pyrrolidine fumarate]: the Kb amounted to 350 nM.

For `COc1ccc(C(CCN(C(C)C)C(C)C)c2cccs2)c(OC)c1` (stereo not drawn) [Example 44, N,N-Diisopropyl-3-(2,4-dimethoxyphenyl)-3-(2-thienyl)propanamine fumarate], the Kb amounted to 2290 nM.
